Data set [1] relates to Hs578T. The experiment in a line: Cell vitality assay (ATP assay, CellTiter-Glo). The class given is cell-based. To be noted: Homo sapiens, Hs-578T; HS578T cell line, 72 h; Table Ib; read-out: IC50 ATP-Assay HS578T after 72 h. The method in brief: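 1000 cells/well were exposed to compound at 12.5 μM down to 0.195 μM (twofold steps) or DMSO for 72 h. ATP was then measured by luminescence after 10 min reagent lysis at room temperature. IC50 was taken as the concentration giving 50% of the DMSO-control ATP level.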
(In ATP-based viability assays light output follows the ATP content of the culture.)

Data set [2] has as its target T1, wild type AXL (wtAXL) receptor tyrosine kinase (Homo sapiens, UniProt P30530).
T1 construct: WtAXL cDNA was cloned into vector pLXSN(ESK) and transfected into Phoenix E packaging cells; expressed in transfected cells; host or cells: NIH3T3 N7 (mouse fibroblasts), retrovirally infected, clone 22
T1 sequence (P30530 26-894): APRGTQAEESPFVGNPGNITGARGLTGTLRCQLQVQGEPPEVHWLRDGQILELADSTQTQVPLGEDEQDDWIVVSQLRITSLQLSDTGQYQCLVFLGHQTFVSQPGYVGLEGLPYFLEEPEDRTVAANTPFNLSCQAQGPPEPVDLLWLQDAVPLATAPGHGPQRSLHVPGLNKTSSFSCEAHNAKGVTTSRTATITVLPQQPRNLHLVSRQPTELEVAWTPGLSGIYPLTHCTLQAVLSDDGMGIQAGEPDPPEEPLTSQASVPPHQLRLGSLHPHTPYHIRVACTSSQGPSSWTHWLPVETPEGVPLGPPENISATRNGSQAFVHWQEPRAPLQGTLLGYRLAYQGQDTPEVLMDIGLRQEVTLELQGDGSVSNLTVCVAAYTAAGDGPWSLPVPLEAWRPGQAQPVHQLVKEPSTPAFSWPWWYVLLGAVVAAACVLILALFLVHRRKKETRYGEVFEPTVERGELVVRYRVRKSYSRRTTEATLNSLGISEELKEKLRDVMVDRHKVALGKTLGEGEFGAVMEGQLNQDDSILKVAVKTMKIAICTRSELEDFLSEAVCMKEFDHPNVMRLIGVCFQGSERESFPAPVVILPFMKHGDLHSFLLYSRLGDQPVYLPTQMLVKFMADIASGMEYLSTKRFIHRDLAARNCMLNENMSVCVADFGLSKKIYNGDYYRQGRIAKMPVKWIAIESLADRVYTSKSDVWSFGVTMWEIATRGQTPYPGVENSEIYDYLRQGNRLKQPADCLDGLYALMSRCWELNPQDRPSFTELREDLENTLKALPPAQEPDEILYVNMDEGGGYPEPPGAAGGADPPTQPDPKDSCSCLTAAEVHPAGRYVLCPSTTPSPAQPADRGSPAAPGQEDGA
The experiment in a line: NIH-3T3-AXL cellular kinase assay (pY-AXL-ELISA). The class given is cell-based. To be noted: NIH-3T3-AXL (clone 22) cells, serum depleted, compounds 1 h; Table Ia. On the procedure: WtAXL cDNA was cloned into vector pLXSN(ESK) and transfected into Phoenix E packaging cells. The viral supernatant was collected and used to infect target cells NIH3T3 N7. Monoclonal NIH3T3-AXL cell lines stably expressing wtAXL were generated by selecting retrovirally infected cells in medium containing puromycin (2 μg/ml) and subsequent clonal separation.
Serial dilutions of compounds were added, and the cells were further incubated for 1 h. Cells were washed with PBS and lysed on ice in 500 μl lysis buffer (50 mM HEPES (pH 7.5), 150 mM NaCl, 1 mM EGTA, 10% Glycerol, 1% Triton X-100, 100 mM NaF, 10 mM Na4P2O7.10H2O, 1 mM Na3VO4, 1 mM phenylmethylsulfonyl fluoride, and […]) for 15 min. The cell lysate were used for phosphotyrosine AXL enzyme-linked immunosorbant assay (pY-AXL-ELISA). […] Subsequently 96-well plates were blocked with PBS-0.05% Tween®20+10% FBS for 4 h at 37° C. Plates were washed 5 times with PBS-0.05% Tween®20 and 95 μl of lysate was transferred per well for incubation overnight at 4° C. Plates were washed 5 times with PBS-0.05% Tween®20 (Sigma, Steinheim, Germany). For detection of phosphorylated tyrosine we used homemade biotynilated 4G10-antibody (0.5 μg/ml) in PBS-0.05% Tween®20+10% FBS (100 μl/well) and incubated the 96-well plate for 2 h at room temperature. The anti-phosphotyrosine mouse monoclonal antibody 4G10 was biotynilated with Sulfo-NHS®-Biotin according to the suppliers protocol (Pierce, Rockford, Ill., USA) and purified by Mirco Bio-Spin 6 Chromatograpy Columns (BIO RAD Laboratories, Inc., Hercules, Calif., USA) using PBS as diluent. Plates were washed 5 times with PBS-0.05% Tween®20. For biding to biotin Alkaline Phosphatase Conjugated Strepavidin SA110 (Millipore, Billerica, Mass., USA) (1:4000) was used in PBS-0.05% Tween20+10% FBS (100 μl/well) and incubated for 30 min at room temperature. Plates were washed 5 times with PBS-0.05% Tween20. For fluorimetric detection of alkaline phosphatase AttoPhos Substrate Set (Roche diagnostics GmbH, Mannheim, Germany) was used (100 μl/well). The fluorimetric signal was quantified after 90 min at 430/560 nm wavelength using a TECAN Ultra Evolution plate reader (Tecan Deutschland GmbH, Crailsheim, Germany).
(In general: In an ELISA, binding on a coated surface is turned into a signal by an enzyme label.)

Data set [3] deals with Hs578T. The experiment in a line: Wound healing migration assay. Conditions: Homo sapiens, Hs-578T; HS578T cell line; Table Ib. The class given is cell-based. The method in brief:
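Cells seeded at 150000/24 well, grown to monolayer overnight, scratched with a pipette tip, then treated with compound at 12.5, 6.25 or 3.125 μM versus DMSO. Stopped by crystal violet fixation at 48-72 h once control wounds closed; IC50 taken as 50% wound size between t0 and t48 or t72.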

Data set [4] deals with Hs578T. Kind of data set: Matrigel outgrowth assay/branching assay. The class given is cell-based. Conditions: Homo sapiens, Hs-578T; HS578T cell line; Table Ib; read-out: Total branching inhibition in Matrigel HS578T. The method in brief:
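Cells (5000/well) were seeded onto polymerized 3 mg/ml Matrigel with compound at 3.125, 1.56 or 0.78 μM, or DMSO. Imaging by inverted microscopy at 48, 72 and 96 h scored invasive branching. Only concentrations giving total branching inhibition counted as positive.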

SMILES strings stand for the structures. Where only a bound is given, the exact number is not on record here.

Usually melting point stands for the temperature, or range, at which the solid turns liquid.

The molecule `COc1cc2c(Oc3ccc(NS(=O)(=O)c4cccc(C(F)(F)F)c4)cc3F)ccnc2cc1OCCCN1CCCCC1` [Example 5, N-{3-Fluoro-4-[6-methoxy-7-(3-piperidin-1-yl-propoxy)-quinolin-4-yloxy]-phenyl}-3-trifluoromethyl-benzenesulfonamide] had a melting point of 123 to 126 °C. Also, the IC50 in the data set on Hs578T [1] was at most 12.5 µM. The same molecule registered an IC50 in data set [2] of under 0.5 µM. Further, in the data set on Hs578T [3], the IC50 was 12.5 to 50 µM. Further, the IC50 in the data set with Hs578T [4] lay within 10 to 25 µM.
As to `COc1cc2c(Oc3ccc(NS(=O)(=O)c4cccc(OC(F)F)c4)cc3F)ccnc2cc1OCCCN1CCCCC1` [Example 9, 3-Difluoromethoxy-N-{3-fluoro-4-[6-methoxy-7-(3-piperidin-1-yl-propoxy)-quinolin-4-yloxy]-phenyl}-benzenesulfonamide], the melting point was 105 to 106 °C. In the data set with Hs578T [1], the IC50 was at most 12.5 µM. This molecule showed an IC50 in data set [2] of under 0.5 µM. In addition, in the data set on Hs578T [3], the IC50 lay within 12.5 to 50 µM. Also, the IC50 with Hs578T [4] fell in the range of 10 to 25 µM.
With `COc1cc2c(Oc3ccc(NS(=O)(=O)c4ccccc4)cc3F)ccnc2cc1OCCCN1CCCC(C)C1` (stereo not drawn) [Example 36, N-(3-Fluoro-4-{6-methoxy-7-[3-(3-methyl-piperidin-1-yl)-propoxy]-quinolin-4-yloxy}-phenyl)-benzenesulfonamide], the melting point was in the range of 160 to 161 °C. In addition, in the data set on Hs578T [1], the IC50 was at most 12.5 µM. In addition, in data set [2], the IC50 was under 0.5 µM. Besides, the IC50 with Hs578T [3] lay in the range of 12.5 to 50 µM. Besides, the IC50 in the data set on Hs578T [4] was 10 to 25 µM.
On to `COc1cc2c(Oc3ccc(NS(=O)(=O)c4cccc(F)c4)cc3F)ccnc2cc1OCCCN1CCCC(C)C1` (stereo not drawn) [Example 37, 3-Fluoro-N-(3-fluoro-4-{6-methoxy-7-[3-(3-methyl-piperidin-1-yl)-propoxy]-quinolin-4-yloxy}-phenyl)-benzenesulfonamide], for which the melting point lay in the range of 113 to 115 °C. In addition, in the data set on Hs578T [1], the IC50 is at most 12.5 µM. Moreover, the IC50 in data set [2] was under 0.5 µM. In addition, the IC50 in the data set on Hs578T [3] fell in the range of 12.5 to 50 µM. In addition, the IC50 in the data set with Hs578T [4] is 10 to 25 µM.
The molecule `COc1cc2c(Oc3ccc(NS(=O)(=O)c4cccc(OC(F)F)c4)cc3F)ccnc2cc1OCCCN1CCCC(C)C1` (stereo not drawn) [Example 43, 3-Difluoromethoxy-N-(3-fluoro-4-{6-methoxy-7-[3-(3-methyl-piperidin-1-yl)-propoxy]-quinolin-4-yloxy}-phenyl)-benzenesulfonamide] showed a melting point of 99 to 100 °C. Also, the IC50 in the data set with Hs578T [1] was at most 12.5 µM. Moreover, the IC50 in data set [2] was under 0.5 µM. In the data set on Hs578T [3], this molecule showed an IC50 of at most 12.5 µM. Further, the IC50 in the data set with Hs578T [4] was at most 10 µM.
As for `COc1cc2c(Oc3ccc(NS(=O)(=O)c4ccccc4C)cc3F)ccnc2cc1OCCCN1CCCC(C)C1` (stereo not drawn) [Example 44, N-(3-Fluoro-4-{6-methoxy-7-[3-(3-methyl-piperidin-1-yl)-propoxy]-quinolin-4-yloxy}-phenyl)-2-methyl-benzenesulfonamide], the melting point lay within 99 to 100 °C. Besides, the IC50 with Hs578T [1] was at most 12.5 µM. The same molecule had an IC50 in data set [2] of under 0.5 µM. The same molecule displayed an IC50 in the data set with Hs578T [3] of at most 12.5 µM. In addition, in the data set on Hs578T [4], the IC50 was at most 10 µM.
In turn, `COc1cc2c(Oc3ccc(NS(=O)(=O)c4cccc(OC(F)(F)F)c4)cc3F)ccnc2cc1OCCCN1CCCC(C)C1` (stereo not drawn) [Example 46, N-(3-Fluoro-4-{6-methoxy-7-[3-(3-methyl-piperidin-1-yl)-propoxy]-quinolin-4-yloxy}-phenyl)-3-trifluoromethoxy-benzenesulfonamide] returned a melting point of 102 to 104 °C. Further, the IC50 in the data set with Hs578T [1] is at most 12.5 µM. Besides, in data set [2], the IC50 was under 0.5 µM. Besides, the IC50 in the data set on Hs578T [3] was at most 12.5 µM. The IC50 in the data set with Hs578T [4] was at most 10 µM.
In turn, `COc1cc2c(Oc3ccc(NS(=O)(=O)c4ccc(F)c(F)c4)cc3F)ccnc2cc1OCCCN1CCCC(C)C1` (stereo not drawn) [Example 48, 3,4-Difluoro-N-(3-fluoro-4-{6-methoxy-7-[3-(3-methyl-piperidin-1-yl)-propoxy]-quinolin-4-yloxy}-phenyl)-benzenesulfonamide] yielded a melting point of 120 to 122 °C. In addition, the IC50 in the data set on Hs578T [1] is at most 12.5 µM. The molecule further displayed an IC50 in data set [2] of under 0.5 µM. For the same molecule, in the data set on Hs578T [3], the IC50 is at most 12.5 µM. In the data set with Hs578T [4], the IC50 lay within 10 to 25 µM.
Regarding `COc1cc2c(Oc3ccc(NS(=O)(=O)c4cc(Cl)ccc4Cl)cc3F)ccnc2cc1OCCCN1CCCC(C)C1` (stereo not drawn) [Example 50, 2,5-Dichloro-N-(3-fluoro-4-{6-methoxy-7-[3-(3-methyl-piperidin1-yl)-propoxy]-quinolin-4-yloxy}-phenyl)-benzenesulfonamide], the melting point is 127 to 129 °C. The IC50 in the data set with Hs578T [1] is at most 12.5 µM. Also, the IC50 in data set [2] was under 0.5 µM. The IC50 in the data set with Hs578T [3] is at most 12.5 µM. Further, the IC50 in the data set on Hs578T [4] is at most 10 µM.
`COc1cc2c(Oc3ccc(NS(=O)(=O)c4ccc(Cl)c(Cl)c4)cc3F)ccnc2cc1OCCCN1CCCC(C)C1` (stereo not drawn) [Example 52, 3,4-Dichloro-N-(3-fluoro-4-{6-methoxy-7-[3-(3-methyl-piperidin-1-yl)-propoxy]-quinolin-4-yloxy}-phenyl)-benzenesulfonamide] returned a melting point of 123 to 124 °C. The IC50 with Hs578T [1] was at most 12.5 µM. Moreover, the IC50 in data set [2] was under 0.5 µM. Also, in the data set with Hs578T [3], the IC50 is at most 12.5 µM. Besides, in the data set on Hs578T [4], the IC50 is at most 10 µM.
`COc1cc2c(Oc3ccc(NS(=O)(=O)c4cc(Cl)cc(Cl)c4)cc3F)ccnc2cc1OCCCN1CCCC(C)C1` (stereo not drawn) [Example 53, 3,5-Dichloro-N-(3-fluoro-4-{6-methoxy-7-[3-(3-methyl-piperidin-1-yl)-propoxy]-quinolin-4-yloxy}-phenyl)-benzenesulfonamide] yielded a melting point of 126 to 128 °C. Besides, in the data set on Hs578T [1], the IC50 was at most 12.5 µM. The IC50 in data set [2] was under 0.5 µM. The IC50 in the data set on Hs578T [3] was at most 12.5 µM. Besides, the IC50 in the data set on Hs578T [4] lay within 10 to 25 µM.
`COc1cc2c(Oc3ccc(NS(=O)(=O)c4c(F)cccc4F)cc3Cl)ccnc2cc1OCCCN1CCN(C)CC1` [Example 118, N-(3-Chloro-4-{6-methoxy-7-[3-(4-methyl-piperazin-1-yl)-propoxy]-quinolin-4-yloxy}-phenyl)-2,6-difluoro-benzenesulfonamide]: the melting point was in the range of 122 to 124 °C. The molecule also registered an IC50 in data set [2] of under 0.5 µM.

(Values after patent US9169241B2, “Quinolinyloxyphenylsulfonamides” (Max-Planck-Gesellschaft Zur Forderung der Wissenschaften …, priority 2009, dated 2015).)
